This note sets out measurements from ChEMBL document CHEMBL5465560, “Selectivity Literature for EUbOPEN Chemogenomic Library” (2024).

SMILES strings stand for the structures.

The target of test [1] is Macrophage colony-stimulating factor 1 receptor (Homo sapiens) (UniProt P07333). In words: Selectivity interaction (KinomeScan (DiscoverX)) EUB0000607a CSF1R. Particulars: at 10 µM.
Test [2] concerns the target Casein kinase II subunit alpha' (Homo sapiens) (UniProt P19784). In words: Selectivity interaction (Kinase panel (literature)) EUB0001199aCl CSNK2A2. The note with it: at 1 µM.
The target in test [3] is T1, Serine/threonine-protein kinase PLK4 (Homo sapiens) (UniProt O00444).
T1 sequence (whole entry): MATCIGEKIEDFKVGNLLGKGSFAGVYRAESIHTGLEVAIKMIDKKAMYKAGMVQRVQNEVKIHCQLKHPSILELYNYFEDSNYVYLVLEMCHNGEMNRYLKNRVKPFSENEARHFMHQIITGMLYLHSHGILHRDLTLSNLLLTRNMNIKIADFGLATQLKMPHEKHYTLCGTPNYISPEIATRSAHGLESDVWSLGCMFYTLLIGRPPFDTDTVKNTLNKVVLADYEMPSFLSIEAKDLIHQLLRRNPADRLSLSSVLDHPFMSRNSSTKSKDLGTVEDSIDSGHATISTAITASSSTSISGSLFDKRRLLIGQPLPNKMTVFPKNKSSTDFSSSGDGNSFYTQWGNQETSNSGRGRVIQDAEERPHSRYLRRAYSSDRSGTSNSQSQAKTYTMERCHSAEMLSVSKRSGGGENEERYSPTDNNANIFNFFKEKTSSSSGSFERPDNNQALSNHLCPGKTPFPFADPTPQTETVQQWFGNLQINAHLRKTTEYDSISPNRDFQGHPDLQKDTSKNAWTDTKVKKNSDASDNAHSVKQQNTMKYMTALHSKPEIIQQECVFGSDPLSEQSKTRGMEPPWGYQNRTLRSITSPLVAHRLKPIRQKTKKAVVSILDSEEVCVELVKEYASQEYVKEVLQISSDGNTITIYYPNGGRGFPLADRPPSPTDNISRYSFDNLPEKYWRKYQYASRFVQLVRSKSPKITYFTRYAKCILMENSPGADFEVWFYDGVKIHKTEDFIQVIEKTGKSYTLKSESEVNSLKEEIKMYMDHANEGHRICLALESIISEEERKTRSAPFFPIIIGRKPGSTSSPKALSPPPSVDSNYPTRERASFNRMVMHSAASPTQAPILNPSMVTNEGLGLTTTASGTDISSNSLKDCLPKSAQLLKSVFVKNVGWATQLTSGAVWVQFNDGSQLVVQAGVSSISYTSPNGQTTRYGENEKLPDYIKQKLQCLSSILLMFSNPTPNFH
The note with it: at 10 µM.

Test [4] concerns RAF proto-oncogene serine/threonine-protein kinase (Homo sapiens), P04049 [Y340D,Y341D]. As to the kind of experiment: Selectivity interaction (ProQinase) EUB0000171b RAF1.
Test [5] concerns the target T2, Tyrosine-protein kinase Mer (Homo sapiens) (UniProt Q12866).
T2 sequence (whole entry): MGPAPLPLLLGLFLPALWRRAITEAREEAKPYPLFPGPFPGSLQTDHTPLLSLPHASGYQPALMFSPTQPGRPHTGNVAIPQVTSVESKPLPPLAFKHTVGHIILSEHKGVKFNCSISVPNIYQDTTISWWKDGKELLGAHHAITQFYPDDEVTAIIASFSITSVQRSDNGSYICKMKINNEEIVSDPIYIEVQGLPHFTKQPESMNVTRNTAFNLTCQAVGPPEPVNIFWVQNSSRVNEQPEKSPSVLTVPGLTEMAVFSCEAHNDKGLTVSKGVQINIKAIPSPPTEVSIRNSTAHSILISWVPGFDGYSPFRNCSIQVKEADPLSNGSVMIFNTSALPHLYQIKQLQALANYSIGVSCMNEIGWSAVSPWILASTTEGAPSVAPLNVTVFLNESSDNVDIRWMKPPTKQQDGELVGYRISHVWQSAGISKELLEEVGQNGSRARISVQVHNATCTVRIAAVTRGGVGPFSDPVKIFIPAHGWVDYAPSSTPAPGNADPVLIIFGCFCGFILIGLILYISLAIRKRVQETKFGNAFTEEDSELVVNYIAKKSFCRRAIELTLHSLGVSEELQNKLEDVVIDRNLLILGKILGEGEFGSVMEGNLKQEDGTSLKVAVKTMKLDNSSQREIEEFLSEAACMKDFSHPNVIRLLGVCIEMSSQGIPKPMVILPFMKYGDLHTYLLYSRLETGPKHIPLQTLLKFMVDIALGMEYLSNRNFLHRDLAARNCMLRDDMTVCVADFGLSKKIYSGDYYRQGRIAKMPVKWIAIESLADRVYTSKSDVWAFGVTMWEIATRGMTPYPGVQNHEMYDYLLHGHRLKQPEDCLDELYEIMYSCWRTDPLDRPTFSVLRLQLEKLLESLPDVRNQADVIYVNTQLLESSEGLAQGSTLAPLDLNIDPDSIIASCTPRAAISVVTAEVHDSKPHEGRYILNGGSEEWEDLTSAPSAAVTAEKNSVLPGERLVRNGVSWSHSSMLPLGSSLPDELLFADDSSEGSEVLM
As to the kind of experiment: Selectivity interaction (Kinase panel (DSF assay)) EUB0001559a MERTK. In general terms: In DSF a fluorescence change marks the thermal transition of the protein.

Test [6] deals with Calcium/calmodulin-dependent protein kinase type II subunit alpha (Homo sapiens, UniProt Q9UQM7). As to the kind of experiment: Selectivity interaction (KinomeScan (DiscoverX)) EUB0000045b CAMK2A.
Test [7] deals with T3, Phosphorylase b kinase gamma catalytic chain, liver/testis isoform (Homo sapiens) (UniProt P15735).
T3 sequence (whole entry): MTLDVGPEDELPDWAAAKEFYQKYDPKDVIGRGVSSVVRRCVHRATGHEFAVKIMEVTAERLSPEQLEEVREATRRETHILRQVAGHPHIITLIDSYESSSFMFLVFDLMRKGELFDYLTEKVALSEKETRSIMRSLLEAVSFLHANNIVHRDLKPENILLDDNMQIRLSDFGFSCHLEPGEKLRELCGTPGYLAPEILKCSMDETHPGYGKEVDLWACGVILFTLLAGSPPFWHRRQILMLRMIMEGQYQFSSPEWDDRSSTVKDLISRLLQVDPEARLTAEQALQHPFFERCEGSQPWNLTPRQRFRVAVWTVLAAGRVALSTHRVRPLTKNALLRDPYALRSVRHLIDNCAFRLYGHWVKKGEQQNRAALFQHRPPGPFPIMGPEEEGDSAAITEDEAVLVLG
In words: Selectivity interaction (KinomeScan (DiscoverX)) EUB0000618a PHKG2. Particulars: at 10 µM.

The target of test [8] is Dual specificity protein kinase CLK2 (Homo sapiens, UniProt P49760). In words: Selectivity interaction (KinomeScan (DiscoverX)) EUB0000618a CLK2. The note with it: at 10 µM.
Dual specificity protein kinase CLK2, sequence (P49760 whole entry, looked up): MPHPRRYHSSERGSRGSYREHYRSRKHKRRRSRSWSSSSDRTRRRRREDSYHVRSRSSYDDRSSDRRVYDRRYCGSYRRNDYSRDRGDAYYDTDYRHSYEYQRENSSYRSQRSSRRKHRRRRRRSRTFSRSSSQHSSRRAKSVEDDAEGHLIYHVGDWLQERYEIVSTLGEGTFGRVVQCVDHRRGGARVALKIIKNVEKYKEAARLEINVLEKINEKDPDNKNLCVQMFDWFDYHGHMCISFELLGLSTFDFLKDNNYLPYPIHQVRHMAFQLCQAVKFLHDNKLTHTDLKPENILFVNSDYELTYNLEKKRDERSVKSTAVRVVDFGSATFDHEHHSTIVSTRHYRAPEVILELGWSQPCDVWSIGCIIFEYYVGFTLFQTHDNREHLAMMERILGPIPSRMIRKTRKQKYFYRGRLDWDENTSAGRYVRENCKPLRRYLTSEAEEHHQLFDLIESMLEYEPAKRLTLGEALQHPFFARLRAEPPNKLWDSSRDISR

RAF proto-oncogene serine/threonine-protein kinase (Homo sapiens), P04049 [Y340D,Y341D], sequence (P04049 whole entry Y340D/Y341D): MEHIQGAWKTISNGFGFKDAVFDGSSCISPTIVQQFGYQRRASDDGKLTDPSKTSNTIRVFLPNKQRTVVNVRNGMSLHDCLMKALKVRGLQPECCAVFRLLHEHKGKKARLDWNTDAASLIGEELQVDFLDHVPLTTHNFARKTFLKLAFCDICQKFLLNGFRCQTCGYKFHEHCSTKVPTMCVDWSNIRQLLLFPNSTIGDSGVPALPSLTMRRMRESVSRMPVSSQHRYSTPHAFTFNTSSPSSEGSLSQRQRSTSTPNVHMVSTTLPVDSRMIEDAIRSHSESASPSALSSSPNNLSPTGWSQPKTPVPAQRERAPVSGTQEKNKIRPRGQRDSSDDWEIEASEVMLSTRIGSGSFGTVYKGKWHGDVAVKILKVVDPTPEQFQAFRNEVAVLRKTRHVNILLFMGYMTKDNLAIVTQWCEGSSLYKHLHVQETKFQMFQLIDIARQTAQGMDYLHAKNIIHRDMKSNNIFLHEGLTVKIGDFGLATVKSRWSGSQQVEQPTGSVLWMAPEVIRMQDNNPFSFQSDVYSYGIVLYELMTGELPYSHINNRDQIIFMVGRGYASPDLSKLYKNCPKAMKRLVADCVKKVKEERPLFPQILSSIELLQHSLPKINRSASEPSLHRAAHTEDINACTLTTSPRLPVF
Calcium/calmodulin-dependent protein kinase type II subunit alpha, sequence (Q9UQM7 whole entry, canonical isoform): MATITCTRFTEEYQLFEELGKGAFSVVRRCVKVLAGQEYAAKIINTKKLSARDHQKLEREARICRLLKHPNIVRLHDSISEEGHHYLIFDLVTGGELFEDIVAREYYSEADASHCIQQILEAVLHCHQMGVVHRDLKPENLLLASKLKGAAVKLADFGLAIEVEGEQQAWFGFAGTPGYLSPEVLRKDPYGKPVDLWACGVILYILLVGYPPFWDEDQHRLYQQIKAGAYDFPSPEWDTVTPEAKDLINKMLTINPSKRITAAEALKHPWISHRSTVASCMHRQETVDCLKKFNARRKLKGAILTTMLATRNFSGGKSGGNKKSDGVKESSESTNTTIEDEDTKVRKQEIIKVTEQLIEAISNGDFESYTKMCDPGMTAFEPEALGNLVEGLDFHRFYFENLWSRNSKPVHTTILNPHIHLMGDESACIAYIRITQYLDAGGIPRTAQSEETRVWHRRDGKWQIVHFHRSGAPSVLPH
Macrophage colony-stimulating factor 1 receptor (Homo sapiens), sequence (P07333 whole entry): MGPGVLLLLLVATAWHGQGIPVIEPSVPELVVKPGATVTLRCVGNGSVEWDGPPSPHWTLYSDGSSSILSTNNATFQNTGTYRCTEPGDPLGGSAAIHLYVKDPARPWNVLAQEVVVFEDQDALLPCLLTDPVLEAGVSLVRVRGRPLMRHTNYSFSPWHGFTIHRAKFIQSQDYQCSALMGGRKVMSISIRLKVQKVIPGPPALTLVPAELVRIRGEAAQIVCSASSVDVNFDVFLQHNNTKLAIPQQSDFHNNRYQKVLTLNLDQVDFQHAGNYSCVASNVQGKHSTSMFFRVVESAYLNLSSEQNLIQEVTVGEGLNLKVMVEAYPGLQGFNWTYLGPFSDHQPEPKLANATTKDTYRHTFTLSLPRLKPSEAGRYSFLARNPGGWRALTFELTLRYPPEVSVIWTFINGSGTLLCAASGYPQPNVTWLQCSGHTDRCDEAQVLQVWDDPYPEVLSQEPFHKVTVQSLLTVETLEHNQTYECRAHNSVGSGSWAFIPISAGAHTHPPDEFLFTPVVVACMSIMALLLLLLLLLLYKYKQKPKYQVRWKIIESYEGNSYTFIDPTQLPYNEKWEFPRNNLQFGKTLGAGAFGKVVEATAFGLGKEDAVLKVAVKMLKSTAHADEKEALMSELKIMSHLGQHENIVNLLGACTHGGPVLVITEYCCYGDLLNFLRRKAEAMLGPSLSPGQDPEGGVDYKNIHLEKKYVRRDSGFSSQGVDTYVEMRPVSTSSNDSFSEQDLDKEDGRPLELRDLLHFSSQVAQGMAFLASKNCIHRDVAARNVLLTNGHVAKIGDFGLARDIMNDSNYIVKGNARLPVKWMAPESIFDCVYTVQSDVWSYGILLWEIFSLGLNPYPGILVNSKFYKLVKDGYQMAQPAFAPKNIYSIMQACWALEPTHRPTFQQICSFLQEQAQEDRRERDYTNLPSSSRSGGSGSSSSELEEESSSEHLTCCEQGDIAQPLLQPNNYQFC
Casein kinase II subunit alpha' (Homo sapiens), sequence (P19784 whole entry, looked up): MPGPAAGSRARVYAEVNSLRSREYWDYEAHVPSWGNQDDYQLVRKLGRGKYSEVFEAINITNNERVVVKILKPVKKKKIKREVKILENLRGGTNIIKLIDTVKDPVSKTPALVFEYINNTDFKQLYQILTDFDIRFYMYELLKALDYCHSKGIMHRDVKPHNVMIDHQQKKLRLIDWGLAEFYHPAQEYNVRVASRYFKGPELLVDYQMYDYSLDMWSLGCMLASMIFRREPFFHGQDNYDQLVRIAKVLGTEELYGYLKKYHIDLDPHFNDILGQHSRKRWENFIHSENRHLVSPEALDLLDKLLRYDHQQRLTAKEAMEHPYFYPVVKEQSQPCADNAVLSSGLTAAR

`CNC(=O)Nc1ccc(-c2nc(N3CC4CCC(C3)O4)c3cnn(C4CCC5(CC4)OCCO5)c3n2)cc1` returned a % of control in test [1] of 100%. Compound `CN1Cc2nccc(-c3cn(C)nc3-c3ccc(F)cc3)c2C1=O` returned a % of inhibition in test [2] of 2%. `CCN(CC)CCCCNc1ncc2cc(-c3cc(OC)cc(OC)c3)c(NC(=O)NC(C)(C)C)nc2n1` came in with a % of control in test [3] of 100%. For `C=CC(=O)Nc1cccc(C(=O)Nc2ccc(Nc3cc(-c4[nH]c(SC)nc4C)ccn3)cc2)c1`, the % of control was found to be 96% in test [4] (at 1 µM) and 92% in test [4] (at 5 µM). With `CN(C(=O)c1cnn2cccnc12)c1cc2c(cc1N1CCOCC1)C(=O)N(C[C@@H](F)C(C)(C)O)C2`, the dTM in test [5] turned out to be 0.3 K. As for `C=CC(=O)Nc1cc(-n2c(=O)ccc3cnc4ccc(-c5ccc(NS(C)(=O)=O)cc5)cc4c32)ccc1C`, the % of control in test [6] (at 1 µM) stood at 98%; in test [6] (at 10 µM), 69%.

As for `O[C@H]1CC[C@H](Nc2ncc3nc(Nc4c(F)cc(F)cc4F)n([C@H]4CCOC4)c3n2)CC1`, the results for the % of control in test [7] and in test [8] were 99% and 7.7%, respectively.
